Results from ChEMBL document CHEMBL1201862, “PubChem BioAssay data set” (2004).
Active and inactive are the calls of the source.

Legend:
Streptococcus = experiment: GAS UMAA2166 growth inhibition – luminescence, BacTiterGlo, counter-screen for streptokinase expression inhibitor project, dose response (AID 1915); format: functional, organism-based;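 note: potency for reduction of bacterial viability or growth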
[1] = tested on: Streptococcus sp. 'group A'; experiment: Streptococcus pyogenes SK(-)GAS viability under kanamycin – luminescence, BacTiterGlo, confirmation, counter-screen for streptokinase expression inhibitor project, dose response (AID 1900); format: functional, organism-based
[2] = Luminescent dose response cell-based high throughput screening assay for inhibitors of the Janus kinase 2 mutant JAK2V617F. [Related pubchem assays: 1446 (Primary screen.), 1521 (Confirmation assay.), 1486 (Counter screen.)]; format: functional
BJ [3] = experiment: BJ-TERT fibroblast viability loss – cell-based, RAS-independent, luminescence, dose response (AID 1933); format: functional; settings: Homo sapiens
BJ [4] = experiment: BJ-TERT-LT-ST fibroblast viability loss – cell-based, RAS-independent, luminescence, dose response (AID 1935); format: functional; settings: Homo sapiens;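 note: BJ fibroblasts immortalized with TERT plus LT and ST oncogenes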
[5] = molecular target: Serine/threonine-protein phosphatase PP1-alpha catalytic subunit (Homo sapiens, UniProt P62136); experiment: inhibition of protein phosphatase 1 activity – biochemical, fluorescence, dose response (AID 2403);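 note: phosphatase turnover of OMFP into fluorescent 3-O-methylfluorescein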
HEK293 = experiment: EBV LMP1 TES2 canonical NF-kB signalling blockers – cell-based, HEK293, luciferase, cherry-pick, dose response (AID 588343); format: functional; settings: Homo sapiens
[6] = MIN6 cell viability loss – mouse insulinoma, cytotoxicity control, dose response (AID 2122); format: functional;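 note: confirmatory high-throughput counterscreen run to flag cytotoxic compounds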
[7] = bead-based luminescence quenchers, dual-tagged ARNT – biochemical, AlphaScreen, cherry-pick, artefact control for ARNT-TACC3 interaction inhibitor project, dose response (AID 651705); format: functional;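 note: AlphaScreen bead proximity signal that flags compounds interfering with the detection technology; potency reflects signal decrease which marks the compound as an assay artifact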
[8] = molecular target: T1, Serine/threonine-protein phosphatase (Homo sapiens, UniProt Q9BPW0); experiment: Counterscreen for inhibitors of PP1: fluorescence-based biochemical high throughput dose response assay to identify inhibitors of Protein Phosphatase 5 (PP5). [Related pubchem assays: 2034 (Summary (PP5 inhibitors)), 1987 (PP5 inhibitors in singlate), 2235 (PP1 inhibitors in singlate)]
T1 sequence (Q9BPW0 whole entry): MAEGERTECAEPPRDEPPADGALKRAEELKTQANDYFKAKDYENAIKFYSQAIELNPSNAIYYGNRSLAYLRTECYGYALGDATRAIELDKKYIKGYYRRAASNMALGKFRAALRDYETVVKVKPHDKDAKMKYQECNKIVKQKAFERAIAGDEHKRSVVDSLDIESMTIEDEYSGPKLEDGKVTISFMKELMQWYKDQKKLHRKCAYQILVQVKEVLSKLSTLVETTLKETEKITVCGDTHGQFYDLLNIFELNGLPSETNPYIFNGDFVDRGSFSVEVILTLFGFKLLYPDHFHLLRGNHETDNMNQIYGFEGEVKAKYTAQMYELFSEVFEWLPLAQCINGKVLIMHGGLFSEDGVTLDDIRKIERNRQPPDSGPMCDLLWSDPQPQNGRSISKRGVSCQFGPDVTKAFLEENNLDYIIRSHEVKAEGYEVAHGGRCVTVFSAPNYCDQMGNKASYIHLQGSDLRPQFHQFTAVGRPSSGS

BJ [9] = experiment: cells; format: functional, cell-based; settings: Homo sapiens
[10] = decrease of insulin promoter-GFP reporter – imaging, high-content screening, mouse beta cells (AID 1628); format: functional; settings: MIN6
[11] = DRD fibroblast viability loss – cell-based, non-viral oncogenic, luminescence, dose response (AID 1934); format: functional; settings: Homo sapiens
INS1 = experiment: INS-1E survival protection against cytokine death – cell-based, luminescence, retest, dose response (AID 449756); format: functional; settings: Rattus norvegicus;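 note: cell death triggered by IL-1 beta plus TNF-alpha plus IFN-gamma mixture; protective hits raise ATP signal compared with cytokine alone wells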
[12] = molecular target: Peroxisome proliferator-activated receptor gamma/Nuclear receptor coactivator 2 (Homo sapiens, UniProt P37231); experiment: (§1) TR-FRET dose response biochemical High Throughput Screening assay for agonists of the steroid receptor coactivator 2 (SRC-2) recruitment by the peroxisome proliferator-activated receptor gamma (PPAR gamma): non-selective agonists. [Related pubchem assays: 1297, 1032 ]; format: functional
[13] = molecular target: Photoreceptor-specific nuclear receptor (Homo sapiens, UniProt Q9Y5X4); format: functional;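 note: potency for compounds that break the NR2E3 corepressor complex and count as activators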
Chain of Photoreceptor-specific nuclear receptor (Q9Y5X4 whole entry): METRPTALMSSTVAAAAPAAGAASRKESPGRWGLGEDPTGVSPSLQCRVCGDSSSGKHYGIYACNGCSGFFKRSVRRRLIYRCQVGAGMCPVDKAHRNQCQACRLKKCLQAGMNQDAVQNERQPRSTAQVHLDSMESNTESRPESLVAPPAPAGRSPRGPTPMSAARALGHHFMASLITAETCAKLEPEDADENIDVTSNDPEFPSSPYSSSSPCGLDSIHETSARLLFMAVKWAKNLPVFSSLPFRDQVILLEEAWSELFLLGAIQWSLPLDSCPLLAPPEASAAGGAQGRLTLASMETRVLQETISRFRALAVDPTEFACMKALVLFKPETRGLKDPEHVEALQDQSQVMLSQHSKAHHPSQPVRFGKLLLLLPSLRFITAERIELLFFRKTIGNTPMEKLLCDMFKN

[14] = molecular target: Peroxisome proliferator-activated receptor gamma/Nuclear receptor corepressor 2 (Homo sapiens, UniProt P37231+Q9Y618); format: functional
Chain of Peroxisome proliferator-activated receptor gamma/Nuclear receptor corepressor 2 (P37231 whole entry): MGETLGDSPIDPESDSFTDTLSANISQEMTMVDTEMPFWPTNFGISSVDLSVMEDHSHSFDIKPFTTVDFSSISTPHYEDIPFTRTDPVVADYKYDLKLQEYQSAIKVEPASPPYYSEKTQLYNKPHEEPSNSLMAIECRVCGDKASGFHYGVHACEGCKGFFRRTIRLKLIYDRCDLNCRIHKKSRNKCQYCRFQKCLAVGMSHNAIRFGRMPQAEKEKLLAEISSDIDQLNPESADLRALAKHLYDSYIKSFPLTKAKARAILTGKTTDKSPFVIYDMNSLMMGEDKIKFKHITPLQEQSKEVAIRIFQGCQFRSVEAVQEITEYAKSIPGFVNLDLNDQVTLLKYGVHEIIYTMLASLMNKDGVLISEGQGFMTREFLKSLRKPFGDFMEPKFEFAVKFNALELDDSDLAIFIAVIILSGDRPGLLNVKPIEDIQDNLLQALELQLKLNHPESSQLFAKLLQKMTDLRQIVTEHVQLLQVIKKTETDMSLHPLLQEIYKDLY
Chain of Peroxisome proliferator-activated receptor gamma/Nuclear receptor corepressor 2 (Q9Y618 whole entry): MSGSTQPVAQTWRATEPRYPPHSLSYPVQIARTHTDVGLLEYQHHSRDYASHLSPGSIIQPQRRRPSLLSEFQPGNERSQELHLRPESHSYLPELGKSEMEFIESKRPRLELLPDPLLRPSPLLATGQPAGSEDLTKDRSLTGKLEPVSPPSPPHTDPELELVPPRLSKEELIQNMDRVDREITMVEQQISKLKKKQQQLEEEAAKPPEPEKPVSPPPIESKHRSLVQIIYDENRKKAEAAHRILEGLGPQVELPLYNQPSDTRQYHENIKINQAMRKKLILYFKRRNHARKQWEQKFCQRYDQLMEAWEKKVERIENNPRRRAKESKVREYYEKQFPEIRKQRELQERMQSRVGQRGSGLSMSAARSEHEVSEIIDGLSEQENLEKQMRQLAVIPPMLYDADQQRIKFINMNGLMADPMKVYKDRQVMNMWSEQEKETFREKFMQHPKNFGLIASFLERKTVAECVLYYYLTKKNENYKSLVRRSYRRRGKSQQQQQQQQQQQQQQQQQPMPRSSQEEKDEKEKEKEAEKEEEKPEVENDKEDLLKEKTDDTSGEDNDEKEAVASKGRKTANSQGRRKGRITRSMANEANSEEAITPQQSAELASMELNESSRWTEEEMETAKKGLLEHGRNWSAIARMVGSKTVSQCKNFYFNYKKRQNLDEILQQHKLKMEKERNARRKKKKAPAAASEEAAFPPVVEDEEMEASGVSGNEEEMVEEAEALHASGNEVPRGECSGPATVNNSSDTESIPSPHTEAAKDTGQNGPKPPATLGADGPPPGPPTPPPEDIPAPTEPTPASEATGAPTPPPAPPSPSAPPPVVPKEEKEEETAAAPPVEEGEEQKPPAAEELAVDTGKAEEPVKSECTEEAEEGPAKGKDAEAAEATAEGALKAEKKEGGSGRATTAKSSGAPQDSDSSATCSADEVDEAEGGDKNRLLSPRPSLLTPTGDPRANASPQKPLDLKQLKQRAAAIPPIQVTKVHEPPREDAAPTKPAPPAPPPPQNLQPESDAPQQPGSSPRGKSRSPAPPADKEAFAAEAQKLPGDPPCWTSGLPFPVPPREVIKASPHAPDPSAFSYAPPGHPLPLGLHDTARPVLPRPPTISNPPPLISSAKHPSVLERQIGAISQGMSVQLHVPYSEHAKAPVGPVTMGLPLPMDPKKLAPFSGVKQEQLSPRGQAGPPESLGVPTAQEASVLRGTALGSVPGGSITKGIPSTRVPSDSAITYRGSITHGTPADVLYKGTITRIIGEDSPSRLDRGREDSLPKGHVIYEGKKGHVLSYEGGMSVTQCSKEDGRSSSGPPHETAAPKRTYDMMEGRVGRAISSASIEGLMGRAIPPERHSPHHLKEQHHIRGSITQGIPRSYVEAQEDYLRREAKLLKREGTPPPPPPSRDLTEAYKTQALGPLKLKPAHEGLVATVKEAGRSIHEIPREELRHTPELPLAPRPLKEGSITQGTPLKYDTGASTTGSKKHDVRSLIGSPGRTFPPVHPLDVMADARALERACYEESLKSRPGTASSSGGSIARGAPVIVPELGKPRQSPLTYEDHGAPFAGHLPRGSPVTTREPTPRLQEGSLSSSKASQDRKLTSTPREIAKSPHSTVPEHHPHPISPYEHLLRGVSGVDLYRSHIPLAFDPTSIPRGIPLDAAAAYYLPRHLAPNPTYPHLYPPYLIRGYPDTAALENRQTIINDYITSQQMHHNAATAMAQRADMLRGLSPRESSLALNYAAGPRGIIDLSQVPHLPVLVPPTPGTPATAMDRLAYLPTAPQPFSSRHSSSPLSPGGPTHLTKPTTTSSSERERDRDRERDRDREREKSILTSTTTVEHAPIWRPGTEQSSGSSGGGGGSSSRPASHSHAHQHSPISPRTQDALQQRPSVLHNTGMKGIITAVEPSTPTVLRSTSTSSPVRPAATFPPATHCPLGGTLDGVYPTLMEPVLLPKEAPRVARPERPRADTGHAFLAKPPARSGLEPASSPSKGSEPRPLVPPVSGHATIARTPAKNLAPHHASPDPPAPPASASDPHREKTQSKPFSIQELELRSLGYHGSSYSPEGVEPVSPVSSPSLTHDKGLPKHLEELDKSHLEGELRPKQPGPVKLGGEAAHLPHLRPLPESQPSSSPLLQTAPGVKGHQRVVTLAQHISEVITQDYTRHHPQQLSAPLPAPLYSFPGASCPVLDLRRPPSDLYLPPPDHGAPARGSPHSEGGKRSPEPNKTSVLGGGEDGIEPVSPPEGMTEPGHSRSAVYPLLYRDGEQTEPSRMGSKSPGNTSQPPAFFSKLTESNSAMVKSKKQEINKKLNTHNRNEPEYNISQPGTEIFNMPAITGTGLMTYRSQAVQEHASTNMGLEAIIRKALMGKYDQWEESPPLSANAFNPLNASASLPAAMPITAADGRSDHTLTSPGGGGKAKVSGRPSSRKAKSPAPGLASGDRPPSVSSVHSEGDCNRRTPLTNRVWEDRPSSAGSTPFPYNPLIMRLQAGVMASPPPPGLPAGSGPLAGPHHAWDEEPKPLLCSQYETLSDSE

[15] = molecular target: Peroxisome proliferator-activated receptor gamma/Nuclear receptor coactivator 1 (Homo sapiens, UniProt P37231); experiment: as §1, with “1 (SRC-1)” for “2 (SRC-2)”, “assays (depositor defined):AID1300, AID1808, AID504735, AID631]” for “assays: 1297, 1032 ]”; format: protein assay
[16] = molecular target: Peroxisome proliferator-activated receptor gamma/Nuclear receptor coactivator 3 (Homo sapiens, UniProt P37231); experiment: as §1, with “3 (SRC-3)” for “2 (SRC-2)”, “1301 (Confirmation screen.), 1048 (Primary screen.)]” for “1297, 1032 ]”; format: functional
[17] = molecular target: Neuropeptides B/W receptor type 1 (Homo sapiens, UniProt P48145); experiment: Fluorescence-based dose response cell-based high throughput screening assay to identify antagonists of the G-protein coupled receptor 7 (GPR7). [Related pubchem assays: 1952 (Screening assay (GPR7 antagonists).), 1880 (Summary AID.)]; format: functional
Chain of Neuropeptides B/W receptor type 1 (P48145 whole entry): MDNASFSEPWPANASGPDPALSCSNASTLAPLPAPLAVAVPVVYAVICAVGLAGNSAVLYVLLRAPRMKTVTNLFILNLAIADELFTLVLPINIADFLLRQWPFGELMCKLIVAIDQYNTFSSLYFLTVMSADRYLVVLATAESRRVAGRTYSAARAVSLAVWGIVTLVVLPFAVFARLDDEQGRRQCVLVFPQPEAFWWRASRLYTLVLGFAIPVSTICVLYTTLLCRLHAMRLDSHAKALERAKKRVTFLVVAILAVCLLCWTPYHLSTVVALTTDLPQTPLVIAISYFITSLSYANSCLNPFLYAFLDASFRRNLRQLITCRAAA

[18] = molecular target: Melanin-concentrating hormone receptor 1 (Homo sapiens, UniProt Q99705); experiment: Fluorescence-based counterscreen for antagonists of the G-protein coupled receptor 7 (GPR7): cell-based high throughput dose response assay to identify antagonists of the melanin-concentrating hormone receptor 1 (MCHR1).; format: functional
[19] = molecular target: T2, Rac GTPase-activating protein 1 (Homo sapiens, UniProt Q9H0H5); experiment: blockers of MgcRacGAP-driven Rac1 GTP hydrolysis – biochemical, ADP Hunter fluorescence, primary and confirmatory, confirmation (AID 624330); format: functional
T2 sequence (Q9H0H5 whole entry): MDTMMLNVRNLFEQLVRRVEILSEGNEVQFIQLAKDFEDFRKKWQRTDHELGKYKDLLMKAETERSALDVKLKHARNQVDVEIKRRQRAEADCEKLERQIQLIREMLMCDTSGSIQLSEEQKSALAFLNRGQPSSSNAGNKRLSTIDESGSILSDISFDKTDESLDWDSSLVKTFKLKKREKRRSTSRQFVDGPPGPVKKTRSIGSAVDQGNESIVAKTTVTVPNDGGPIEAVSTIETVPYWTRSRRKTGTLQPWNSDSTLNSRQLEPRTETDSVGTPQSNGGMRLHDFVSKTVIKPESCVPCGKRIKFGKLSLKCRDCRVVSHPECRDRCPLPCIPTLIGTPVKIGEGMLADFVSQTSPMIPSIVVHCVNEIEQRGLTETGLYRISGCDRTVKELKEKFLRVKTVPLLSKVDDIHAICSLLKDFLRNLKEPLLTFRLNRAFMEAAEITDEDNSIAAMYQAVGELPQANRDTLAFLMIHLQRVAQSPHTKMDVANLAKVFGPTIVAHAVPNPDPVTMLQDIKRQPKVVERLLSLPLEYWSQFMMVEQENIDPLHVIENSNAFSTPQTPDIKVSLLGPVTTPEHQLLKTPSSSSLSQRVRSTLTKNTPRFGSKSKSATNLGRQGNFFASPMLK

[20] = A cytotoxicity screen of small molecule inhibitors of the PhoP region in Salmonella typhi identified in the primary screen. [Related pubchem assays: 1850, 1864, 1985 ]; format: functional
[21] = molecular target: T3, Alkaline phosphatase, tissue-nonspecific isozyme (Homo sapiens, UniProt P05186)
T3 sequence (P05186 whole entry): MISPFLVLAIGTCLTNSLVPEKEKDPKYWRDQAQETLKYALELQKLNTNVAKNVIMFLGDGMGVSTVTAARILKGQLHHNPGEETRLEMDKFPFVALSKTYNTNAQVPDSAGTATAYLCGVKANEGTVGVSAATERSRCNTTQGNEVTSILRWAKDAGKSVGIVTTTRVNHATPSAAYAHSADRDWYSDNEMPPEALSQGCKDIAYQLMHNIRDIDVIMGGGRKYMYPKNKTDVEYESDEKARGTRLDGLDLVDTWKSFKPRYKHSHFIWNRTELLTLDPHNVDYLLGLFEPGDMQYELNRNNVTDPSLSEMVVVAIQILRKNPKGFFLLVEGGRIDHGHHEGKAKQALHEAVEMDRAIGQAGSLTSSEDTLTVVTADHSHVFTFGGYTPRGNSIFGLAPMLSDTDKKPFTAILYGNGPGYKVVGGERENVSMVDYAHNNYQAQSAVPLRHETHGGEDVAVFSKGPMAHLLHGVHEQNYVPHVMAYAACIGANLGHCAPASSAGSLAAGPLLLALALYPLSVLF

[22] = molecular target: G2/mitotic-specific cyclin-B1 (Homo sapiens, UniProt P14635); experiment: Counterscreen assay for inhibitors of Wee1 degradation: dose response cell-based assay to identify inhibitors of cyclin B degradation. [Related pubchem assays: 1410, 1321 ]; format: functional
Wee1-like protein kinase = Wee1-like protein kinase (Homo sapiens, UniProt P30291); experiment: Dose Response Cell-based Assay for Inhibitors of Wee1 Degradation. [Related pubchem assays: 1410, 1321 ]; format: functional
Chain of Wee1-like protein kinase (P30291 whole entry): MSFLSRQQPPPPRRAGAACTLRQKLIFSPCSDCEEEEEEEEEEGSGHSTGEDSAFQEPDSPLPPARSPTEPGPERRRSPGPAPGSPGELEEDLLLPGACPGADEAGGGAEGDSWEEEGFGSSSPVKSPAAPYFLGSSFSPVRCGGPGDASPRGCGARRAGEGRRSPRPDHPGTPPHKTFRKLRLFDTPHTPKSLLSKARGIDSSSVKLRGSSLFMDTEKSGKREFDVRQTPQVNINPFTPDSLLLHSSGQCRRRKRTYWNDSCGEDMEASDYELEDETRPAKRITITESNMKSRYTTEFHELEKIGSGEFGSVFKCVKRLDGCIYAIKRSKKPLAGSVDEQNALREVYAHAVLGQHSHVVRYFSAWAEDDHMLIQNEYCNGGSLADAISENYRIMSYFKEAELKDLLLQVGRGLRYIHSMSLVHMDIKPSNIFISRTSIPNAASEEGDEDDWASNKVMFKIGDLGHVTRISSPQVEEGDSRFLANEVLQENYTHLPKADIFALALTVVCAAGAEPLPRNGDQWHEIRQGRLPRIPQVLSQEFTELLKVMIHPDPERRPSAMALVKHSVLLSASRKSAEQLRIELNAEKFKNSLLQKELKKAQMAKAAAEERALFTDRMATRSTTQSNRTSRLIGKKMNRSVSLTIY

Streptokinase A = molecular target: T4, Streptokinase A (Streptococcus pyogenes serotype M1, UniProt P10520); experiment: viability-normalized secreted streptokinase activity reduction – plasminogen activation absorbance, OD405, dose response (AID 1914); format: functional, Streptococcus pyogenes M1 GAS;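 note: secreted streptokinase activity via plasminogen activation per viability signal from cell pellet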
T4 sequence (P10520 whole entry): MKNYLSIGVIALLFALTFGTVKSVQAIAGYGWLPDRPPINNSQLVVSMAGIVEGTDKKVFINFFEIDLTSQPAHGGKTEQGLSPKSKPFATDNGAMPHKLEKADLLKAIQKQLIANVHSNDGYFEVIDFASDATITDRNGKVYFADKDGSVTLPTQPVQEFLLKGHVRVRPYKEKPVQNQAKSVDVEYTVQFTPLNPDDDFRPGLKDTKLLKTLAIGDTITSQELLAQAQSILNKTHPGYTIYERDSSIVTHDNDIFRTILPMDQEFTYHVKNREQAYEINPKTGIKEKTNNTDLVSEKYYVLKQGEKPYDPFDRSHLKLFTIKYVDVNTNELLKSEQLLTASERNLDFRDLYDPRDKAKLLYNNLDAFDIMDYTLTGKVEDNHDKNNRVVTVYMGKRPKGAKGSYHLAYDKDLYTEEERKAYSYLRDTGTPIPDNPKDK

[23] = molecular target: T5, Dual specificity protein phosphatase 6 (Rattus norvegicus, UniProt Q64346); format: functional
T5 sequence (Q64346 whole entry): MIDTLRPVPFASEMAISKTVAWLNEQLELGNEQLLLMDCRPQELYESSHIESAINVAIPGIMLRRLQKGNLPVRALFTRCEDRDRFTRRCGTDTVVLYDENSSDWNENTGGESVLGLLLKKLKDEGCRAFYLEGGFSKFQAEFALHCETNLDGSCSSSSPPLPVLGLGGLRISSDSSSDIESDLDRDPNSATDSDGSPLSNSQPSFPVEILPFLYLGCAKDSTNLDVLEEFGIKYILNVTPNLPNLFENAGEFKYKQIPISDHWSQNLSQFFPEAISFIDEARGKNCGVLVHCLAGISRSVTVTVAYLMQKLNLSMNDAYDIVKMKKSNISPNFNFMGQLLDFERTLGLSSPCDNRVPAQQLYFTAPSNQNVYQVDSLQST

[24] = molecular target: T6, Tyrosine-protein phosphatase non-receptor type 7 (Homo sapiens, UniProt P35236); format: functional
T6 sequence (P35236 whole entry): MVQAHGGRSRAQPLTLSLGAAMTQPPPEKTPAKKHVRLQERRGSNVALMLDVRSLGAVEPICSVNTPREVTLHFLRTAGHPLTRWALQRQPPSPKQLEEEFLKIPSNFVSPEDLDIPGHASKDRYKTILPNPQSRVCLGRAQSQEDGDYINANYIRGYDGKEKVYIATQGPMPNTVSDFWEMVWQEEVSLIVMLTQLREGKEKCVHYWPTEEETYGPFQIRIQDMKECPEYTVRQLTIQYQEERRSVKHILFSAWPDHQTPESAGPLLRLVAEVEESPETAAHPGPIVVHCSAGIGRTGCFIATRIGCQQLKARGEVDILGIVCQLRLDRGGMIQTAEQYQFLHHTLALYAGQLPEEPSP

[25] = molecular target: Glyceraldehyde-3-phosphate dehydrogenase (Homo sapiens, UniProt P04406)
[26] = molecular target: T5, Dual specificity protein phosphatase 6
Cytochrome P450 2D6 = Cytochrome P450 2D6 (Homo sapiens, UniProt P10635); experiment: qHTS Assay for Inhibitors and Substrates of Cytochrome P450 2D6. [Related pubchem assays: 410 ]; format: ADME; settings: read-out: Potency
Chain of Cytochrome P450 2D6 (P10635 whole entry): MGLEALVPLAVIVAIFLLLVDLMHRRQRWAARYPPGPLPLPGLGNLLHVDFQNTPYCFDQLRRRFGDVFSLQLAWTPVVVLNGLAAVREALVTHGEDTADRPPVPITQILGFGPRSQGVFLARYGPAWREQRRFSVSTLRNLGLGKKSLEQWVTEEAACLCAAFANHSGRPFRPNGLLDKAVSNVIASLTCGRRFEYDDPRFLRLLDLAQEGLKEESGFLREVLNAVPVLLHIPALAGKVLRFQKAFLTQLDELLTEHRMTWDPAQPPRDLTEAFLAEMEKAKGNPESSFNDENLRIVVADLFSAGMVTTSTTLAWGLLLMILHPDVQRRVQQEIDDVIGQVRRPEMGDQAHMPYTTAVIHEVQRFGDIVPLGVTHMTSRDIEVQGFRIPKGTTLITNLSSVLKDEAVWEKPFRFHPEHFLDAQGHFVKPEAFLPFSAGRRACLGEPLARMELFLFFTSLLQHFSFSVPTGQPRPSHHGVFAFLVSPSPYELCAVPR

c1ccc(CCNc2nc(-c3ccccn3)nc3ccccc23)cc1
EC50 (Streptococcus): 2.33 µM (active)
EC50 [1]: 0.916 µM (active)
IC50 [2]: 1.77 µM (active)
EC50 (BJ [3]): 3.18 µM (active)
EC50 (BJ [4]): 51.1 µM (inconclusive)
IC50 [5]: 6.27 µM (active)
AC50 (HEK293): 1.24 µM (active)
IC50 [6]: 1.21 µM (active)
AC50 [7]: 125 µM (active)
IC50 [8]: 49.3 µM (not active)
EC50 (BJ [9]): 28.9 µM (active)
IC50 [10]: 1.96 µM (active)
EC50 [11]: 15.9 µM (inconclusive)
AC50 (INS1): 1.63 µM (active)

CCN(CC)CCCN1C(=O)C(O)=C(C(=O)c2cc3ccccc3o2)C1c1ccccn1 (stereo not drawn)
EC50 [12]: 35.7 µM (not active)
IC50 [13]: > 39.8 µM (not active)
IC50 [14]: 4.13 µM (active)
EC50 [15]: > 79.4 µM (inactive)
EC50 [16]: > 79.4 µM (not active)

CCOc1ccccc1NC(=O)C(NCC1(N2CCCCC2)CCCCC1)c1ccccc1 (stereo not drawn)
IC50 [17]: > 14.6 µM (not active)
IC50 [18]: > 14.6 µM (not active)
IC50 [19]: 139 µM (active)

Cc1ccn2cc(C(=O)Nc3nnc(C)s3)nc2c1
EC50 [20]: > 50 µM (active)
EC50 [21]: > 100 µM (not active)

O=C(Nc1ccc(Cl)c(Cl)c1)Nc1nccs1
EC50 (Streptococcus): 15.4 µM (active)
EC50 [1]: 8.23 µM (active)
EC50 [22]: > 49.7 µM (not active)
EC50 (Wee1-like protein kinase): > 49.7 µM (not active)
EC50 (BJ [3]): 3.87 µM (active)
EC50 (BJ [4]): 3.25 µM (inconclusive)
EC50 (Streptokinase A): > 150 µM (not active)
EC50 (BJ [9]): 46.2 µM (active)
EC50 [11]: 3.33 µM (active)

Cc1cc(NC(=O)c2cccs2)no1
IC50 [23]: > 100 µM (inactive)
IC50 [24]: > 100 µM (not active)
IC50 [25]: 50.1 µM (active)
IC50 [26]: > 100 µM (inactive)

COc1cccc2oc(-c3ccc(O)cc3)cc(=O)c12
AC50 (Cytochrome P450 2D6): 15.8 µM (inconclusive)
